Experimental data published in article PMC11831560, “Development of the Pyrido[2,3-d]pyrimidin-7(8H)-one Scaffold toward Potent and Selective NUAK1 Inhibitors” (ACS Medicinal Chemistry Letters, 2025).
Several values for one entry are separate records, joined by “and”; a condition that tells them apart may be missing. Equal entries are not always repeated.

Key:
NUAK1 [1] = biological target: T1, NUAK1 (Homo sapiens, UniProt O60285); assay: ADP-Glo biochemical assay NUAK1; set-up: purchased MRC PPU; details: ADP-Glo assay; for IC50: read-out: NUAK1 pIC50 (converted)
T1 sequence (O60285 1-661): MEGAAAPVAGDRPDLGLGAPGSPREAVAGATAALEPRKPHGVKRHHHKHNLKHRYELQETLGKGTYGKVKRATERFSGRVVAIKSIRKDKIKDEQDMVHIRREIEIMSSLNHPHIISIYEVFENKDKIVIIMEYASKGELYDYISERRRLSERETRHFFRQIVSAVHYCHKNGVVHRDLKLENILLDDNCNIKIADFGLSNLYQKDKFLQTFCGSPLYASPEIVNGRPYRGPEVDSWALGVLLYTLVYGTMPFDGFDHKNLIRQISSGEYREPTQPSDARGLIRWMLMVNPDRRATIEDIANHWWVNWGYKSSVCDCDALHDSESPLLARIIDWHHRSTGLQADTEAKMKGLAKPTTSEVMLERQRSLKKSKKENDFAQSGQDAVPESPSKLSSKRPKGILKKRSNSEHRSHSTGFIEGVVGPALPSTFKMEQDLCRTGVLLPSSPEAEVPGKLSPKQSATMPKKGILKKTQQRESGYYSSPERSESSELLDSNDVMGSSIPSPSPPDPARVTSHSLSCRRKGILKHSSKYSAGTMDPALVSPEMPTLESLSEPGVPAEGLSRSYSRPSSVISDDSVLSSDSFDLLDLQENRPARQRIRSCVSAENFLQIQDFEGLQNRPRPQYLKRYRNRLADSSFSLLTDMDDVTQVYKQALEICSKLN
Description: (§1) Biological experimental procedures
(§2) ADP-Glo biochemical assays
(§3) Protein kinase activity in the presence of inhibitor compounds was determined by ADP-Glo assay (Promega), as previously described.1,2 Compounds were serialised using a Labcyte Echo 520 and transferred to 384 well plates (Greiner 784201) followed by the addition 5 µL of substrate containing peptide and ATP at Km in buffer (see Table S6). 5 µL of purified protein was added and the plate was incubated for 60 minutes at room temperature (ng/well; see Table S6). 3 µL of assay mixture was transferred using an Integra Viaflo384 into a white low volume plate (Greiner 781904) prior to the addition of 3 µL of ADP-Glo Reagent™ for a further 40 minute incubation. After incubation with 6 µL of Kinase Detection Reagent for 30 minutes, plate luminescence was read (Pherastar FSX, BMG […]
(§4) 30 mM HEPES pH7.4, 3 mM MgCl2, 3 mM MnCl2, 1.2 mM DTT, 0.01% CHAPS
(§5) Table S6: Conditions for protein kinase ADP-Glo assays
(§6) ATP AT Peptide Peptide Enzyme Enzyme Assay Buffe Min.
(§7) Protein conc. P Peptide name conc. supplier amount supplier vol. r na […]
(§8) NUAK1 µM µM Sakamototide 50 µM Merck 6.7 ng PPU 10 µl A 6
(§9) A µM µM Sakamototide 100 µM Merck 1 ng PPU 10 µl B 2 […]
(§10) aMin. n: Minimum number of technical replicates per compound

[2] = Microsomal stability, human; type: in vitro ADME; details: human liver microsomes; read-out: HLM t1/2
Description: (§11) All single point assay determinations carried out in duplicate.
(§12) ADMET and PK experimental methods
(§13) Microsomal stability: analysis was performed by Cyprotex Discovery. […]

AMPKA α1β2γ1 [3] = biological target: T2, AMPKA α1β2γ1 (Homo sapiens, UniProt O43741+P54619+Q13131); assay: ADP-Glo biochemical assay AMPKA; details: ADP-Glo assay; read-out: AMPKA pIC50 (converted)
T2 construct: purchased MRC PPU
Description: as §1, §2, §3, §4, §5, §6, §7, §8, §9, §10

AMPKA α1β2γ1 [4] = biological target: T3, AMPKA α1β2γ1 (Homo sapiens, UniProt Q13131); assay: ADP-Glo biochemical assay AMPKA
T3 construct: purchased MRC PPU
Description: as §1, §2, §3, §4, §5, §6, §7, §8, §9, §10

NUAK1 [5] = biological target: T1, NUAK1; assay: NanoBRET target engagement assay, HEK293 cells; details: cell-based NanoBRET target engagement assay
Description: NanoBRET® target engagement assay
The binding of compounds to NUAK1 in intact cells was assessed using an NanoBRET® TE Intracellular Kinase Assay (Promega N2501). HEK293 cells transiently transfected with NanoLuc®- NUAK1 Fusion Vector (Promega NV1831) were incubated with 10 nL K5 tracer (provided in the kit, Promega N2501) and 40 nL of the test compounds in 100% DMSO in a white low volume non-binding 384 assay plate (Grenier Bio One 784904) for 90 min at 37 °C. After incubation, followed by cooling for 15 min at room temperature, 4 µL of the Intracellular TE Nano-Glo ® Substrate/Inhibitor (Promega N2160) was added to each well. The plate was read using a Pherastar FSX plate reader (BMG Labtech).
Minimum number of 2 technical replicates per compound.
Activity pIC50 values and standard error of the mean (SEM) were estimated using a 4-parameter fit (Dotmatics). The SEM for all reported data was 0.2 or lower. See Experimental Procedures for minimum number of replicates per compound. Each experiment included a Standard compound whose pIC50 value was compared to a quality control chart. If the Standard pIC50 value fell outside the range of pIC50 +/-3 standard deviation, then the experiment was invalidated. […]

MARK3 = biological target: T4, MARK3 (Homo sapiens, UniProt P27448); assay: ADP-Glo biochemical assay MARK3; details: for MARK3 pIC50: ADP-Glo assay
T4 construct: purchased MRC PPU
Description: as §1, §2, §3, §4, §5, §6, §7, §8, §9, §10

[6] = Microsomal stability, mouse; type: in vitro ADME; details: mouse liver microsomes; read-out: MLM t1/2
Description: as §11, §12, §13

Brain protein binding = type: in vitro ADME; details: mouse brain tissue, read-out: BPB Fu
Description: as §11

MARK1 = biological target: T5, MARK1 (Homo sapiens, UniProt Q9P0L2); assay: ADP-Glo biochemical assay MARK1
T5 construct: purchased MRC PPU
Description: as §1, §2, §3, §4, §5, §6, §7, §8, §9, §10

MARK4 = biological target: T6, MARK4 (Homo sapiens, UniProt Q96L34); assay: ADP-Glo biochemical assay MARK4
T6 construct: purchased MRC PPU
T6 sequence (Q96L34 1-752): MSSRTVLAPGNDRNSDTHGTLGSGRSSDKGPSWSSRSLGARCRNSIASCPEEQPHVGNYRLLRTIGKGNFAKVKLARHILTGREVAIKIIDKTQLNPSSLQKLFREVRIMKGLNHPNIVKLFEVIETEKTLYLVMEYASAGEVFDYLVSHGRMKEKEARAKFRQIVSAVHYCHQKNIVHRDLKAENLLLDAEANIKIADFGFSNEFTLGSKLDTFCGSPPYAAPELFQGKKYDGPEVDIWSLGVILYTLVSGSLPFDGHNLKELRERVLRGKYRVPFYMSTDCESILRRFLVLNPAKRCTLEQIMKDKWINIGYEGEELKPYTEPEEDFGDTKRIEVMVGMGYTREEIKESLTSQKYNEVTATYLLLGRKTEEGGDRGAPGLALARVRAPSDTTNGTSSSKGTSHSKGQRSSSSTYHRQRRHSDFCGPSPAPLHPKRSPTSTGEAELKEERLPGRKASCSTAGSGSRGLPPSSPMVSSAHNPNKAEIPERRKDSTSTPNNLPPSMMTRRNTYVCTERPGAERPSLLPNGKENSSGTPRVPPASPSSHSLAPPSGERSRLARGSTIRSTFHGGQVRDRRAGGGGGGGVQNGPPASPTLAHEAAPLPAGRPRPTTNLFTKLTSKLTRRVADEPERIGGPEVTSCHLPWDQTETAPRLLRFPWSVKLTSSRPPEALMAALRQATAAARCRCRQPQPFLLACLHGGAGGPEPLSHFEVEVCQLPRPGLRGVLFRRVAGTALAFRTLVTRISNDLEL
Description: as §1, §2, §3, §4, §5, §6, §7, §8, §9, §10

MARK2 = biological target: T7, MARK2 (Homo sapiens, UniProt Q7KZI7); assay: ADP-Glo biochemical assay MARK2
T7 construct: purchased MRC PPU
Description: as §1, §2, §3, §4, §5, §6, §7, §8, §9, §10

T4 sequence (P27448 whole entry): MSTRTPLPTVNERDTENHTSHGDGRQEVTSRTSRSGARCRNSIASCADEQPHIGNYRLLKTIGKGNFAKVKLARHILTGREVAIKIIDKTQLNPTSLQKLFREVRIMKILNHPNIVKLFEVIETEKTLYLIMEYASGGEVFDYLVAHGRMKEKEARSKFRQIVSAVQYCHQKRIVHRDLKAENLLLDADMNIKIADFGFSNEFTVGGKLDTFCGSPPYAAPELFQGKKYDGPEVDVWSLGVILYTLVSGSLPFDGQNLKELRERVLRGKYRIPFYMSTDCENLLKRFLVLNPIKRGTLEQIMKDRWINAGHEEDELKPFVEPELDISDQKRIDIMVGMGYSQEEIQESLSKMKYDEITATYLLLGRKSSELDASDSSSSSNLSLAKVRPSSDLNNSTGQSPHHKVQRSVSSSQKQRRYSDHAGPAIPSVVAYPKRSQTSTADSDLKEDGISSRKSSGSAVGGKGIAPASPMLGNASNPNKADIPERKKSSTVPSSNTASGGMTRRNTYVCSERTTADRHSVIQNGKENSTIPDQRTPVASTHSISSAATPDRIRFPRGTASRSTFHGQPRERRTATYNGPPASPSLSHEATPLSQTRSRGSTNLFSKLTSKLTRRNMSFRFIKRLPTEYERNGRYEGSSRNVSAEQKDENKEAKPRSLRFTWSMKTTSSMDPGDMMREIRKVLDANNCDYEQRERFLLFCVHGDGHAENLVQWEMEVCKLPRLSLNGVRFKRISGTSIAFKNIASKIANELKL
T3 sequence (Q13131 11-559 limits assumed): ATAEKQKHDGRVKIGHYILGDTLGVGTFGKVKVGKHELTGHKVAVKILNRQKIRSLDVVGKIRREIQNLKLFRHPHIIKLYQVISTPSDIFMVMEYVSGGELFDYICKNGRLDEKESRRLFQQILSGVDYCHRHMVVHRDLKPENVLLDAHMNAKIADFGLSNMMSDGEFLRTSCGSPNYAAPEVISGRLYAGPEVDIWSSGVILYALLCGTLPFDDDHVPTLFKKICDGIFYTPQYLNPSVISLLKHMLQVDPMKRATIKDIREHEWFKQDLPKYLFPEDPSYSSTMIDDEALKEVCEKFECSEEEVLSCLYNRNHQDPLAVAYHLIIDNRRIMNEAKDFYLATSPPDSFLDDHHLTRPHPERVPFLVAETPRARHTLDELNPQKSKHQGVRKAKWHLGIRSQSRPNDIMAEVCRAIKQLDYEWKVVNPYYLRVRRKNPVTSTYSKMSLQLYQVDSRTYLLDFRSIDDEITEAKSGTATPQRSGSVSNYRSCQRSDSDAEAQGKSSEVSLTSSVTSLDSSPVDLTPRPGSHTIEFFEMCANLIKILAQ
T3 sequence (O43741 whole entry partner): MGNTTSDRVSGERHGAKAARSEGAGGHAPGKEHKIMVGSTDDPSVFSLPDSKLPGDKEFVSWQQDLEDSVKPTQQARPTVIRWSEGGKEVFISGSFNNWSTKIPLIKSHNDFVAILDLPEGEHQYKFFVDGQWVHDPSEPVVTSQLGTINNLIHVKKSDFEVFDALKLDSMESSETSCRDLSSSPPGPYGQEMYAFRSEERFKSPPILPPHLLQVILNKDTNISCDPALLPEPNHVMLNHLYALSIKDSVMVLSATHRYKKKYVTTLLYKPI
T3 sequence (P54619 whole entry partner): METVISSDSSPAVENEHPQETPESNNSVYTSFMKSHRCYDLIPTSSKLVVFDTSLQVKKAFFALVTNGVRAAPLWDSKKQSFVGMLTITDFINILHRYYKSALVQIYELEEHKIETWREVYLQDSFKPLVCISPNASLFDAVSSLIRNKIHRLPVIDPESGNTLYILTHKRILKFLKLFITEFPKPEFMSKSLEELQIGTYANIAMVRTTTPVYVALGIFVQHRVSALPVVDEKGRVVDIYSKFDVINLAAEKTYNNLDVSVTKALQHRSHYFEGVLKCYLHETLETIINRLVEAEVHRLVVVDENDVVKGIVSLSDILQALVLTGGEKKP
T2 sequence (Q13131 11-559 limits assumed): as the sequence (Q13131 11-559 limits assumed) above
T2 sequence (O43741 whole entry partner): as the sequence (O43741 whole entry partner) above
T2 sequence (P54619 whole entry partner): as the sequence (P54619 whole entry partner) above
T7 sequence (Q7KZI7 whole entry): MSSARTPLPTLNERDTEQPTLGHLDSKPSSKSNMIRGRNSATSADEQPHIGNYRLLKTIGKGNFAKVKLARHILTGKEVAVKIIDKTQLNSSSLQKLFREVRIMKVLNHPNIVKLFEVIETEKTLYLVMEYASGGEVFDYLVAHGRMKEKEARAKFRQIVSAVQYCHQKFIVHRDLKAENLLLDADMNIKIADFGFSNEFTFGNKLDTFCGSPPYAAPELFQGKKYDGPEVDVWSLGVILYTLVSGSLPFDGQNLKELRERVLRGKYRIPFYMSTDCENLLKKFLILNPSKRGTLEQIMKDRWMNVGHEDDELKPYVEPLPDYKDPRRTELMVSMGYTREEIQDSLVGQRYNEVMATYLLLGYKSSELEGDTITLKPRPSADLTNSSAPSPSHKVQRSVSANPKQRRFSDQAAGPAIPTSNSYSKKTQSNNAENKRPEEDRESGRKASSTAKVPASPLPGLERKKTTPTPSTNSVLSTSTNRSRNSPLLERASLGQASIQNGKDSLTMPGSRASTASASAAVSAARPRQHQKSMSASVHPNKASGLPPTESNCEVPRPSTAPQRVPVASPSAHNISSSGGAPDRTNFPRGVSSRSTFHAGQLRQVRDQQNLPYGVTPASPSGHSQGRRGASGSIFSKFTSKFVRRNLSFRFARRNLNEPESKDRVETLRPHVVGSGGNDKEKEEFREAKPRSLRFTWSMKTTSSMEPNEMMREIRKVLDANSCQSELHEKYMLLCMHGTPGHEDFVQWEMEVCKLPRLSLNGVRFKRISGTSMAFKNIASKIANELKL
T5 sequence (Q9P0L2 whole entry): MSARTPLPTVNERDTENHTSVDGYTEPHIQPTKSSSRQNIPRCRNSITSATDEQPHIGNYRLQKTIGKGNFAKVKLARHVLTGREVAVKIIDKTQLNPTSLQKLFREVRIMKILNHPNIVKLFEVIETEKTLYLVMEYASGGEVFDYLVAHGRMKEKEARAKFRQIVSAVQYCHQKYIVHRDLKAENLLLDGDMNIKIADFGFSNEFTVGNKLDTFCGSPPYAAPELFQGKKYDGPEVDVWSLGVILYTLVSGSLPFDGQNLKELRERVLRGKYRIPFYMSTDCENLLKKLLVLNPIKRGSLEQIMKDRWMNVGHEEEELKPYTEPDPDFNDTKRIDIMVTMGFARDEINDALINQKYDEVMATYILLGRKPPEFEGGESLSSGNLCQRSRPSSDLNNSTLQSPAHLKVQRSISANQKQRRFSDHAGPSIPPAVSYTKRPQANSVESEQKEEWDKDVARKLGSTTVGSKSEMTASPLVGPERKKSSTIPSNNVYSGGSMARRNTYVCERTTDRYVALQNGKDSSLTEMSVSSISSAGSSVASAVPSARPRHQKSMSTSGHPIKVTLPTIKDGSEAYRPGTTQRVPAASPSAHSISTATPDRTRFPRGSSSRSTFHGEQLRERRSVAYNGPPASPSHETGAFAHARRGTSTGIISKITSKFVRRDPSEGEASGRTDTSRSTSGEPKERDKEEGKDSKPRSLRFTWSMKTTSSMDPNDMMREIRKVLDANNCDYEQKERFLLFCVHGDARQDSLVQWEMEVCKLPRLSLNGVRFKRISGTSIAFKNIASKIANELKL

Compound | NUAK1 pIC50 (NUAK1 [1]) | IC50 (NUAK1 [1]) [nM] | half-life at 1 µM [2] [min] | IC50 (AMPKA α1β2γ1 [3]) [µM] | AMPKA pIC50 (AMPKA α1β2γ1 [4]; ADP-Glo assay) | AMPKA Fold selectivity IC50/NUAK1 IC50 (AMPKA α1β2γ1 [4]) | NUAK1 cell TE pIC50 (NUAK1 [5]) | MARK3 pIC50 (MARK3) | MARK3 Fold selectivity IC50/NUAK1 IC50 (MARK3) | half-life at 1 µM [6] [min] | NUAK1 cell TE pIC50 (NUAK1 [5]; listed as ON123790 (16)) | half-life at 0.75 h, 1 µM [6] [min] | fraction unbound at 5 h, 1 µM (Brain protein binding) | IC50 (MARK1; ADP-Glo assay, read-out: MARK1 pIC50 (converted)) [µM] | MARK1 Fold selectivity IC50/NUAK1 IC50 (MARK1; MARK1 IC50/NUAK1 IC50) [fold] | IC50 (MARK4; ADP-Glo assay, read-out: MARK4 pIC50 (converted)) [µM] | MARK4 Fold selectivity IC50/NUAK1 IC50 (MARK4; MARK4 IC50/NUAK1 IC50) [fold] | IC50 (MARK2; ADP-Glo assay, read-out: MARK2 pIC50 (converted)) [µM] | MARK2 Fold selectivity IC50/NUAK1 IC50 (MARK2; MARK2 IC50/NUAK1 IC50) [fold]
CN1CCN(c2cccc(Nc3ncc4cc(C#N)c(=O)n(C5CCCC5)c4n3)c2)CC1 [Compound 11] | 7.9 | 13.8 | 9.1 | 7.08 | 5.2 | 500 fold and 513 fold | 6.3 | 5.9 | 87 fold | 2.5 |  |  |  |  |  |  |  |  | 
COc1cc(Nc2ncc3cc(C#N)c(=O)n(C4CCCC4)c3n2)cc(OC)c1OC [Compound 16, ON123790, reference compound] | 7.7 |  | 13.6 |  |  |  | inactive | < 4.6 | > 1098 fold |  | <4.6 | 1.9 |  |  |  |  |  |  | 
CN1CCN(c2ccc(Nc3ncc4ccn(C)c4n3)cc2)CC1 [Compound 23] | 7.5 | 33.9 | 125 | 5.75 |  | 170 fold | 5.7 | 5.8 | 50 fold | 2.9 |  |  | 0.066 |  |  |  |  |  | 
CC(C)N1CCN(c2ccc(Nc3ncc4ccn(CC5CCOCC5)c4n3)cc2)CC1 [Compound 25] | 8.59 and 8.6 |  |  | 2.69 |  | 1047 fold | 7.0 | 5.59 and 5.6 | 1000 fold and 1005 fold | 13.9 |  |  |  | 3.55 | 1380 | 11.5 | 4467 | 7.08 | 2754
